Active and inactive are the calls of the source.
Legend:
Cytochrome P450 2C19 = Cytochrome P450 2C19 (Homo sapiens, UniProt P33261); assay: Cytochrome panel assay with activity outcomes. Panel member name: p450-cyp2c19 Compounds with AC50 equal or less than 10 uM are considered active; assay type: functional
[1] = target: T1, Oxysterols receptor LXR-beta (Homo sapiens, UniProt P55055); assay type: functional, cell-based
T1 sequence (P55055 whole entry): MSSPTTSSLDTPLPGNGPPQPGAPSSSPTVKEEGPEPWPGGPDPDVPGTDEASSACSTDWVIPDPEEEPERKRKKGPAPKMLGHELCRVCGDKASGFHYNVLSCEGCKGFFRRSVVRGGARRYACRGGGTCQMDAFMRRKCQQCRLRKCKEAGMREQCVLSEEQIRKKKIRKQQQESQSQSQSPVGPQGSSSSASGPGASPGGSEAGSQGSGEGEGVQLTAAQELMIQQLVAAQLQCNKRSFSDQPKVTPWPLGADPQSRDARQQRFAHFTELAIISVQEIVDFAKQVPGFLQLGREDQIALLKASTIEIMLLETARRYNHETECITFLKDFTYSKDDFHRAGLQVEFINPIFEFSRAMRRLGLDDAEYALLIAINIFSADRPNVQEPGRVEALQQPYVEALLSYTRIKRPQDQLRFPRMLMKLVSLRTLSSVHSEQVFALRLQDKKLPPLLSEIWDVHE

Cytochrome P450 2D6 = Cytochrome P450 2D6 (Homo sapiens, UniProt P10635);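 also: CYP2D6 member of a cytochrome P450 panel assay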
Sequence of Cytochrome P450 2D6 (P10635 whole entry): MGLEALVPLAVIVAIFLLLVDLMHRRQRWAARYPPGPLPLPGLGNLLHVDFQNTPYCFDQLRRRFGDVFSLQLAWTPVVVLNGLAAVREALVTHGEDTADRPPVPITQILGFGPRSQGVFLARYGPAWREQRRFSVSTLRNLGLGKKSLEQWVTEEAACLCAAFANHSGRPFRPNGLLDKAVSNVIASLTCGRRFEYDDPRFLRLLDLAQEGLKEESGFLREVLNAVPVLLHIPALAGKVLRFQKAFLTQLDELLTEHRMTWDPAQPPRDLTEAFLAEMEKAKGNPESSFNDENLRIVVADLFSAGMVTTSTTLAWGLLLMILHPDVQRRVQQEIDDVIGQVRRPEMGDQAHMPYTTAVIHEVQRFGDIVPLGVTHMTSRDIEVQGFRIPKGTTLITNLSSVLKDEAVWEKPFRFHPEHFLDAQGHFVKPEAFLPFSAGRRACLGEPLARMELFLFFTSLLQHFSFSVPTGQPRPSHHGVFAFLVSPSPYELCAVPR

Cytochrome P450 2C9 = Cytochrome P450 2C9 (Homo sapiens, UniProt P11712)
Sequence of Cytochrome P450 2C9 (P11712 whole entry): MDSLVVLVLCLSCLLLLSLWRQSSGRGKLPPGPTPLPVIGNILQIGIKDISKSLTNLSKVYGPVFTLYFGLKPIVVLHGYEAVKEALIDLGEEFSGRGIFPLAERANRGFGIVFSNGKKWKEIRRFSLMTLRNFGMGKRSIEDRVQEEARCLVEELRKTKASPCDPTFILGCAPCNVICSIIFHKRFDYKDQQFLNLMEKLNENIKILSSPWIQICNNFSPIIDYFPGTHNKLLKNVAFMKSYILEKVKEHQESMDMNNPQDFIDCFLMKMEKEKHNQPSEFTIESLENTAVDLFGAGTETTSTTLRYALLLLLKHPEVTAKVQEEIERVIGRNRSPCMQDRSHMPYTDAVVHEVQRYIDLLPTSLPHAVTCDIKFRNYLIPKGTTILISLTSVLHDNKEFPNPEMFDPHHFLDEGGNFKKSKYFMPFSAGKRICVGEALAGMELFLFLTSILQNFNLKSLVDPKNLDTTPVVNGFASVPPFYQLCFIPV

[2] = target: Endoplasmic reticulum aminopeptidase 1 (Homo sapiens, UniProt Q9NZ08); assay: inhibition of human ERAP1 enzyme activity – biochemical, cherry-pick, set 2, plate reader, dose response (AID 743314)
Sequence of Endoplasmic reticulum aminopeptidase 1 (Q9NZ08 whole entry): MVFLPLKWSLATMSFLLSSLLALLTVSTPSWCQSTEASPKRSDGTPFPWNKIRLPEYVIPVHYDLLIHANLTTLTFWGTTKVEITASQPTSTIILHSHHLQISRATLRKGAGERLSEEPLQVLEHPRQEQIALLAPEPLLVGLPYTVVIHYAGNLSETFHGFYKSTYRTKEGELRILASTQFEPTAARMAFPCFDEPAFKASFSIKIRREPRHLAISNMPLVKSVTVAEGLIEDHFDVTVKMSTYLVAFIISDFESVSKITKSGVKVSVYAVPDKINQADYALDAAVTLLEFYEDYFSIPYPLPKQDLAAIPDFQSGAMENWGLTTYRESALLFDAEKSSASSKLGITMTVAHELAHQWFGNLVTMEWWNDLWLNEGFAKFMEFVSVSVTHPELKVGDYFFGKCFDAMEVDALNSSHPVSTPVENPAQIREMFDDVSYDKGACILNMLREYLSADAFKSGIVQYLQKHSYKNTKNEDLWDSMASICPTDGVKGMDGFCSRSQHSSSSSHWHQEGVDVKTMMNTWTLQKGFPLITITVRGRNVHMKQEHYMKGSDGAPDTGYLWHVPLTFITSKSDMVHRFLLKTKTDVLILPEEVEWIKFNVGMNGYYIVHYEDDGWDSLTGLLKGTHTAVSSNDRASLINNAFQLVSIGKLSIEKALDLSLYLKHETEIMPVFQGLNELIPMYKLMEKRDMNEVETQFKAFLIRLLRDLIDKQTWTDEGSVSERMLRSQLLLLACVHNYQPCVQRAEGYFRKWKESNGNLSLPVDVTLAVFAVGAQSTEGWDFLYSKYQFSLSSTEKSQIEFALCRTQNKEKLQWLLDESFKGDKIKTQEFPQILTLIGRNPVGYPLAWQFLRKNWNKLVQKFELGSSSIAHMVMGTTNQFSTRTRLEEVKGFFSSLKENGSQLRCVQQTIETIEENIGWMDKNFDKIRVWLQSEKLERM

[3] = A549 cell cytotoxicity, dose response, cytotoxicity control, plate reader, cherry-pick, antagonist series (AID 743412); assay type: functional, cell-based
[4] = toxicity toward HepG2 liver cells – cell-based, plate reader, cherry-pick, antagonist series, cytotoxicity control, dose response (AID 743416); assay type: functional
[5] = blockers of bursicon-stimulated LGR2 cAMP reporter – cell-based, HEK293, CRE-luciferase reporter, cherry pick, set 2, dose response (AID 743343); assay type: functional;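 also: transfected cells were stimulated with diluted bursicon conditioned medium after compound addition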
[6] = blockade of melanocortin 4 receptor signaling – cell-based, plate reader, cherry pick, counter-screen for LGR2 antagonist project, dose response (AID 743444); assay type: functional;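 also: transfected HEK 293 cells stimulated with alpha-MSH peptide; potency of inhibitors of the alpha-MSH evoked signal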
[7] = viability loss in HEK293 cells – cell-based, plate reader, cherry-picked samples, cytotoxicity control, dose response (AID 743446); assay type: functional
[8] = Luminescence Cell-Based Dose Confirmation HTS to Identify Activators of 5'UTR Stem-Loop Driven Alpha-Synuclein mRNA Translation in H4 Neuroglioblastoma Cells. [Related pubchem assays: 1829 (Project Summary), 1814 (Primary HTS)]; assay type: functional
[9] = Luminescence Cell-Based Dose Response HTS to Identify Activators of Luciferase Translation or Activity in H4 […] Cells. [Related pubchem assays: 1829 (Project Summary), 1814 (Primary HTS)]; assay type: functional
[10] = target: T1, Oxysterols receptor LXR-beta; assay type: functional, cell-based; remark: listed apart in the source
[11] = HIV-1 Vif–A3G interaction blockers – biochemical, TR-FRET, GST-Vif 1-94, biotin-A3G peptide, dose response retest, primary screen (AID 1117319); assay type: functional;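 also: TR-FRET signal of purified GST-Vif binding a biotinylated A3G peptide; inhibitors lower the FRET signal by blocking Vif and A3G binding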

Sequence of Cytochrome P450 2C19 (P33261 whole entry): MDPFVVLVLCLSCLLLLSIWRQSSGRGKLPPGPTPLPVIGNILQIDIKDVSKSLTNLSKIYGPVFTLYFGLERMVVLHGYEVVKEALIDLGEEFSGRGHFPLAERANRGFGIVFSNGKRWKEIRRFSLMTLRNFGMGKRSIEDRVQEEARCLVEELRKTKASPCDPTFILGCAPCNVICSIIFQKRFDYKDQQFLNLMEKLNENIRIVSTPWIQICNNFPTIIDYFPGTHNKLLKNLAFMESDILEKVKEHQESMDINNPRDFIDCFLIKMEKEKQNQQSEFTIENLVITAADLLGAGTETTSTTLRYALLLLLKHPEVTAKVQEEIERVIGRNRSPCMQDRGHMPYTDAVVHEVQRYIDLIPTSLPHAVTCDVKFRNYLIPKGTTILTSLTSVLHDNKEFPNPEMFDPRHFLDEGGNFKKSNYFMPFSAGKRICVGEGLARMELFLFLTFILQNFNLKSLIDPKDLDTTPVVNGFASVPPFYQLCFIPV

SMILES: Cn1cc(-c2nnc(-c3ccccc3)o2)c2ccccc21
- AC50 (Cytochrome P450 2C19): inconclusive
- EC50 [1]: > 67.5 µM (inactive)
- AC50 (Cytochrome P450 2D6): 3.55 µM (inconclusive)
- AC50 (Cytochrome P450 2C9): inconclusive
- EC50 (cells): > 67.5 µM (inactive)

SMILES: CC(C)(C)c1ccc(Nc2[nH]nc3ccccc23)cc1
- EC50 [1]: > 67.6 µM (inactive)
- EC50 (cells): > 67.6 µM (inactive)

SMILES: COC(=O)[C@H]1[C@H](CO)[C@H]2Cn3c(ccc(/C=C/c4ccccc4)c3=O)[C@@H]1N2CC1CCCC1
- AC50 [2]: 11.9 µM (active)

SMILES: OCc1cccc(-c2cnc3c(Nc4cccc(OC(F)(F)C(F)F)c4)nccn23)c1
- AC50 [3]: 43.3 µM (active)
- AC50 [4]: 41.7 µM (active)
- AC50 [5]: 23.8 µM (active)
- AC50 [6]: 26.8 µM (active)
- AC50 [7]: > 52 µM (inactive)

SMILES: CCCS(=O)(=O)NCc1cn2c(C)csc2n1
- EC50 [8]: 6.17 µM (active)
- EC50 [9]: 12.6 µM (active)
- EC50 [10]: > 67.5 µM (inactive)
- IC50 [11]: > 100 µM (active)

From ChEMBL document CHEMBL1201862, “PubChem BioAssay data set” (2004)
